Data: article PMC10588032 (Journal of the American Chemical Society, 2023)
*1 amine or outer side, *2 acyl side, *3 side chain or, on linkers, in order; H or OH if unused. Where a SMILES comes first, the peptide text is derived from it. [ ]: non-standard residue; d: D form. X1 = CC(C)C[C@@H](CCC(=O)[*:2])N[*:1]; β3hN = NC(=O)C[C@H](N)CC(=O)O

Assays:
NLuc-PTHR1 [1] = biological target: NLuc-PTHR1 (UniProt Q03431); assay: FRET or BRET
NLuc-PTHR1 [2] = biological target: NLuc-PTHR1 (UniProt Q03431)
PTHR1 [3] = biological target: T1, PTHR1 (Homo sapiens, UniProt Q03431); assay: β-arrestin-1 recruitment to the PTHR1; format: cell-based
T1 sequence (Q03431 27-593): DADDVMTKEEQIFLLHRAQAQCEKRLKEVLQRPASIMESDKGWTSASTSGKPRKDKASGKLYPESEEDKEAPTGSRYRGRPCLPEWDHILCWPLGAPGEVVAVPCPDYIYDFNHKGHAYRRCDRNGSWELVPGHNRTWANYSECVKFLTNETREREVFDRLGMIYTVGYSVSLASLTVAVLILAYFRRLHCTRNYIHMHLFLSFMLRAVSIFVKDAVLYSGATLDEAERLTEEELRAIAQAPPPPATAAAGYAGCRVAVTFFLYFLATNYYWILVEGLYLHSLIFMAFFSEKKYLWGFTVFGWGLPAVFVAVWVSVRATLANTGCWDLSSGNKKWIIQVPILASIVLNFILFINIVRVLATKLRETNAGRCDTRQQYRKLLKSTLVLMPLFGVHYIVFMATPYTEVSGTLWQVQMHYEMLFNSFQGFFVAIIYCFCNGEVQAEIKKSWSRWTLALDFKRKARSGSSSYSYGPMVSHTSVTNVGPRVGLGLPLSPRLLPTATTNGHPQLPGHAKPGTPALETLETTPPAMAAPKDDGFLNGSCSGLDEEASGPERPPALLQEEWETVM

PTHR2 = PTHR2 (Homo sapiens, UniProt P49190); assay: PTHR2 activation via cAMP production; format: cell-based
PTHR1 [4] = biological target: T1, PTHR1; assay: PTHR1 activation via cAMP production; format: cell-based
NLuc-PTHR1 [5] = biological target: T2, NLuc-PTHR1 (Homo sapiens, UniProt Q03431); assay: NLuc-PTHR1 competition binding
T2 sequence (Q03431 27-593): T1 sequence (Q03431 27-593)

PTHR1 [6] = assay: PTHR1 cAMP washout assay; format: cell-based; details: 10 nM agonist for 20 min, then PTHR1 antagonist PTH(7-34) introduced
PTHR1 [7] = biological target: T1, PTHR1; assay: β-arrestin-2 recruitment to the PTHR1; format: cell-based
PTHR1-RLuc8 = biological target: T3, PTHR1-RLuc8 (UniProt Q03431 27-593); assay: FRET or BRET
T3 sequence (looked up): T1 sequence (Q03431 27-593)

Sequence of PTHR2 (P49190 25-550, species assumed): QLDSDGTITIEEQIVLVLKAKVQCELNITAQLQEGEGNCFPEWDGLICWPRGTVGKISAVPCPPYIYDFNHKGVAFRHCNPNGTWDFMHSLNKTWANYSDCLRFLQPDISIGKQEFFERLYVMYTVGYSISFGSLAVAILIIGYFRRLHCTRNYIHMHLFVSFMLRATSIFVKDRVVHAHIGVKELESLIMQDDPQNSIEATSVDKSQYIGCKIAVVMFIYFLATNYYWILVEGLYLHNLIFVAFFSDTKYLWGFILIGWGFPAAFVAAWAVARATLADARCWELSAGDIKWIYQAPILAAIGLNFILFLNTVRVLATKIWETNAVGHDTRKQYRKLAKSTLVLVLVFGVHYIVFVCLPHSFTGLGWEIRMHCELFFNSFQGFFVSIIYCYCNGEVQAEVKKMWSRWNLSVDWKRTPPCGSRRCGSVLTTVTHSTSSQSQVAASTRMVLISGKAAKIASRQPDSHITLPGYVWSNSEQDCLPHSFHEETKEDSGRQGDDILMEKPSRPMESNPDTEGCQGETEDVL

## PTH(1-34) (peptide)
NLuc-PTHR1 [1]
  IC50: 22 nM
NLuc-PTHR1 [2]
  PTHR1 cAMP production, % Max: 102%

## CC[C@H](C)[C@H](NC(=O)[C@H](CCC(=O)O)NC(=O)[C@H](CO)NC(=O)[C@@H](NC(=O)[C@@H](N)CO)C(C)C)C(=O)N[C@@H](CCC(N)=O)C(=O)N[C@@H](CC(C)C)C(=O)N[C@@H](CCSC)C(=O)N[C@@H](Cc1c[nH]cn1)C(=O)N[C@@H](CC(N)=O)CC(=O)N[C@H](CCC(=O)N[C@@H](CCCCN)C(=O)N[C@@H](Cc1c[nH]cn1)C(=O)N[C@@H](CC(C)C)C(=O)N[C@@H](CC(N)=O)C(=O)N[C@@H](CO)C(=O)N[C@@H](CCSC)C(=O)N[C@@H](CCC(=O)O)C(=O)N[C@@H](CCCNC(=N)N)C(=O)N[C@H](C(=O)N[C@@H](CCC(=O)O)C(=O)N[C@@H](Cc1c[nH]c2ccccc12)C(=O)N[C@@H](CC(C)C)C(=O)N[C@@H](CCCNC(=N)N)C(=O)N[C@@H](CCCCN)C(=O)N[C@@H](CCCCN)C(=O)N[C@@H](CC(C)C)C(=O)N[C@@H](CCC(N)=O)C(=O)N[C@@H](CC(=O)O)C(=O)N[C@H](C(=O)N[C@@H](Cc1c[nH]cn1)C(=O)N[C@@H](CC(N)=O)C(=O)N[C@@H](Cc1ccccc1)C(N)=O)C(C)C)C(C)C)CC(C)C [Peptide 1] (H-SVSEIQLMH[β3hN][X1]KHLNSMERVEWLRKKLQDVHNF-NH2; N-terminus assumed)
PTHR1 [3]
  EC50: 100 nM
PTHR1 [3]; normalized against PTH(1-34), ≥4 independent experiments, ± SEM
  PTHR1 β-arrestin-1 Recruitment % Max: 27 ± 3%
PTHR2
  EC50: 31.6 nM
PTHR2; maximal response normalized against PTH(1-34), ≥4 independent experiments, ± SEM
  PTHR2 cAMP Production % Max: 76 ± 3%
PTHR1 [4]
  EC50: 2.51 nM
PTHR1 [4]; maximal response normalized against PTH(1-34), 4 independent experiments, ± SEM
  PTHR1 cAMP Production % Max: 116 ± 6%
NLuc-PTHR1 [5]
  IC50: 126 nM
PTHR1 [6]
  AUC of post-washout PTHR1 cAMP, lower compared to PTH(1-34): ~ 40%
PTHR1 [7]
  EC50: 100 nM
PTHR1 [7]; normalized against PTH(1-34), ≥3 independent experiments, ± SEM
  PTHR1 β-arrestin-2 Recruitment % Max: 21 ± 4%

B1: β-arrestin-1-Venus (natural protein, UniProt P49407 1-418, looked up)
chain: MGDKGTRVFKKASPNGKLTVYLGKRDFVDHIDLVDPVDGVVLVDPEYLKERRVYVTLTCAFRYGREDLDVLGLTFRKDLFVANVQSFPPAPEDKKPLTRLQERLIKKLGEHAYPFTFEIPPNLPCSVTLQPGPEDTGKACGVDYEVKAFCAENLEEKIHKRNSVRLVIRKVQYAPERPGPQPTAETTRQFLMSDKPLHLEASLDKEIYYHGEPISVNVHVTNNTNKTVKKIKISVRQYADICLFNTAQYKCPVAMEEADDTVAPSSTFCKVYTLTPFLANNREKRGLALDGKLKHEDTNLASSTLLREGANREILGIIVSYKVKVKLVVSRGGLLGDLASSDVAVELPFTLMHPKPKEEPPHREVPENETPVDTNLIELDTNDDDIVFEDFARQRLKGMKDDKEEEEDGTGSPQLNNR
PTHR1-RLuc8
  EC50 of PTH(1-34) for recruitment: 7.2 nM
  EC50 of peptide 1 for recruitment: 100 nM
  EC50 of peptide 2 for recruitment: 190 nM
